Test results as given in patent US20110245537A1, “L-carnitine calcium fumarate, preparation method and application for the same” (Liaoning Konepnutra Co., Ltd, priority 2009, published 2011).

What was measured:
[1] = cited from earlier work
[2] = hygroscopicity: caking or sticking on exposure to air; assay type: physicochemical; settings: 25° C., relative humidity of 60±5%, 24 hours exposure to air
Source text: The obtained L-carnitine calcium fumarate is in uniform powder form with good fluidity, more than 98% of which is smaller than 40 mesh size. […] The product has a calcium content of 6.76% with good non-hygrosopicity.
The obtained L-carnitine calcium fumarate is in uniform powder form and has good fluidity, greater than 98% of which is smaller than 40 mesh in granular size. […] The product has a calcium content of 9.28%, with better non-hygrosopicity.

For `C[N+](C)(C)C[C@H](O)CC(=O)[O-].O=C(O)C(O)C(O)C(=O)O` [L-carnitine tartrate, L-carnitine L-tartrate], the “relative humidity at which the salt will deliquesce” value [1] is given as “over 60%”.
For “L-Carnitine Calcium Fumarate (1:2:1) [Example 2]”, the “caking or sticking phenomena (non-hygroscopicity)” value [2] was “no caking or sticking phenomena”.
With “L-Carnitine Calcium Fumarate (2:2:1) [Example 1]” the “caking or sticking phenomena (non-hygroscopicity)” value [2] was “no caking or sticking phenomena”.
